Data published in patent US6479435B1, “Diaryl ethers and processes for their preparation and herbicidal and desiccant compositions containing them” (ISK Americas Incorporated, priority 1997, dated 2002).

Assays:
Assay type in all cases: in vivo
[1] = tested on: soybean (Glycine max L., var. Pella 86, SOY); assay: Pre-emerge greenhouse test, crop damage rating; details: 14 days after application, rating scale 0-100
Method in brief: (§1)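 Seeds sown in sandy loam one day before track-sprayer application of acetone solutions at 125–1000 g ai/ha (187 l/ha), then surface-watered to incorporate and bottom-watered. Injury scored visually at 14 days on a 0–100 scale (0 no damage, 100 complete death).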

[2] = tested on: upland rice (Oryza sp., var.Tebonnet, RICE); assay: Post-emerge greenhouse test, crop damage rating; details: 14 days after application
Method in brief: (§2)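 Plants at the 2-3 leaf stage, sown 8-21 days earlier, were track-sprayed post-emergence with compound in acetone plus 0.25% v/v non-ionic surfactant at 63-1000 g ai/ha (187 l/ha). Damage was rated at 14 days on a 0-100 scale (0 none, 100 all plants dead), for both crop injury and weed control.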

[3] = tested on: field corn (Zea mays L., var. Dekalb 535, CORN); assay: Post-emerge greenhouse test, crop damage rating; details: 14 days after application
Method in brief: as §2

[4] = tested on: redroot pigweed (Amaranthus retroflexus, AMARE); assay: Post-emerge greenhouse herbicide test, phytotoxicity rating; details: 14 days after application
Method in brief: as §2

[5] = tested on: velvetleaf (Abutilon theophrasti, ABUTH); assay: as above; details: 14 days after application
Method in brief: as §2

[6] = tested on: barnyardgrass (Echinochloa crusgalli, ECHCG); assay: as above; details: 14 days after application
Method in brief: as §2

[7] = tested on: ivyleaf morningglory (Ipomoea hederacea, IPOHE); assay: as above; details: 14 days after application
Method in brief: as §2

[8] = tested on: green foxtail (Setaria viridis, SETVI); assay: as above; details: 14 days after application
Method in brief: as §2

[9] = tested on: sicklepod (Cassia obtusifolia, CASOB); assay: as above; details: 14 days after application
Method in brief: as §2

[10] = tested on: Johnsongrass (Sorghum halepense, SORHA); assay: as above; details: 14 days after application
Method in brief: as §2

[11] = tested on: lambsquarters (Chenopodium album, CHEAL); assay: as above; details: 14 days after application
Method in brief: as §2

[12] = tested on: large crabgrass (Digitaria sanguinalis, DIGSA); assay: as above; details: 14 days after application
Method in brief: as §2

[13] = tested on: upland rice (Oryza sp., var.Tebonnet, RICE); assay: Pre-emerge greenhouse test, crop damage rating; details: 14 days after application, rating scale 0-100
Method in brief: as §1

[14] = tested on: field corn (Zea mays L., var. Dekalb 535, CORN); assay: Pre-emerge greenhouse test, crop damage rating; details: 14 days after application, rating scale 0-100
Method in brief: as §1

[15] = tested on: soybean (Glycine max L., var. Pella 86, SOY); assay: Post-emerge greenhouse test, crop damage rating; details: 14 days after application
Method in brief: as §2

[16] = tested on: common ragweed (Ambrosia artemisiifolia L., AMBEL); assay: Post-emerge greenhouse herbicide test, phytotoxicity rating; details: 14 days after application
Method in brief: as §2

[17] = tested on: redroot pigweed (Amaranthus retroflexus, AMARE); assay: Pre-emerge greenhouse herbicide test, phytotoxicity rating; details: 14 days after application, rating scale 0-100
Method in brief: as §1

[18] = tested on: common ragweed (Ambrosia artemisiifolia L., AMBEL); assay: as above; details: 14 days after application, rating scale 0-100
Method in brief: as §1

[19] = tested on: velvetleaf (Abutilon theophrasti, ABUTH); assay: as above; details: 14 days after application, rating scale 0-100
Method in brief: as §1

[20] = tested on: barnyardgrass (Echinochloa crusgalli, ECHCG); assay: as above; details: 14 days after application, rating scale 0-100
Method in brief: as §1

[21] = tested on: ivyleaf morningglory (Ipomoea hederacea, IPOHE); assay: as above; details: 14 days after application, rating scale 0-100
Method in brief: as §1

[22] = tested on: green foxtail (Setaria viridis, SETVI); assay: as above; details: 14 days after application, rating scale 0-100
Method in brief: as §1

[23] = tested on: sicklepod (Cassia obtusifolia, CASOB); assay: as above; details: 14 days after application, rating scale 0-100
Method in brief: as §1

[24] = tested on: Johnsongrass (Sorghum halepense, SORHA); assay: as above; details: 14 days after application, rating scale 0-100
Method in brief: as §1

[25] = tested on: lambsquarters (Chenopodium album, CHEAL); assay: as above; details: 14 days after application, rating scale 0-100
Method in brief: as §1

[26] = tested on: large crabgrass (Digitaria sanguinalis, DIGSA); assay: as above; details: 14 days after application, rating scale 0-100
Method in brief: as §1

## Cn1c(C(F)(F)F)nc(-c2cc(Oc3ncccc3C(F)(F)F)c(Cl)cc2F)c1Cl [Compound 2-2]
[1]; 500 g ai/ha
  crop damage rating SOY: 15
[2]; 500 g al/ha
  RICE crop damage rating (0-100): 40
[3]; 500 g al/ha
  CORN crop damage rating (0-100): 20
[4]; 500 g al/ha
  AMARE phytotoxicity rating (0-100): 95
[5]; 500 g al/ha
  ABUTH phytotoxicity rating (0-100): 70
[6]; 500 g al/ha
  ECHCG phytotoxicity rating (0-100): 30
[7]; 500 g al/ha
  IPOHE phytotoxicity rating (0-100): 75
[8]; 500 g al/ha
  SETVI phytotoxicity rating (0-100): 30
[9]; 500 g al/ha
  CASOB phytotoxicity rating (0-100): 0
[10]; 500 g al/ha
  SORHA phytotoxicity rating (0-100): 40
[11]; 500 g al/ha
  CHEAL phytotoxicity rating (0-100): 90
[12]; 500 g al/ha
  DIGSA phytotoxicity rating (0-100): 10
[13]; 500 g ai/ha
  crop damage rating RICE: 0
[14]; 500 g ai/ha
  crop damage rating CORN: 0
[15]; 500 g al/ha
  SOY crop damage rating (0-100): 35
[16]; 500 g al/ha
  AMBEL phytotoxicity rating (0-100): 25
[17]; 500 g ai/ha
  phytotoxicity rating AMARE: 100
[18]; 500 g ai/ha
  phytotoxicity rating AMBEL: 20
[19]; 500 g ai/ha
  phytotoxicity rating ABUTH: 10
[20]; 500 g ai/ha
  phytotoxicity rating ECHCG: 0
[21]; 500 g ai/ha
  phytotoxicity rating IPOHE: 60
[22]; 500 g ai/ha
  phytotoxicity rating SETVI: 100
[23]; 500 g ai/ha
  phytotoxicity rating CASOB: 0
[24]; 500 g ai/ha
  phytotoxicity rating SORHA: 30
[25]; 500 g ai/ha
  phytotoxicity rating CHEAL: 60
[26]; 500 g ai/ha
  phytotoxicity rating DIGSA: 20

## Cn1c(C(F)(F)F)nc(-c2cc(Oc3ncccn3)c(Cl)cc2F)c1Cl [Compound 2-3]
[1]; 125 g ai/ha
  crop damage rating SOY: 50
[1]; 500 g ai/ha
  crop damage rating SOY: 25
[2]; 63 g al/ha
  RICE crop damage rating (0-100): 40
[2]; 500 g al/ha
  RICE crop damage rating (0-100): 90
[3]; 63 g al/ha
  CORN crop damage rating (0-100): 30
[3]; 500 g al/ha
  CORN crop damage rating (0-100): 80
[4]; 63 g al/ha
  AMARE phytotoxicity rating (0-100): 100
[4]; 500 g al/ha
  AMARE phytotoxicity rating (0-100): 100
[5]; 63 g al/ha
  ABUTH phytotoxicity rating (0-100): 95
[5]; 500 g al/ha
  ABUTH phytotoxicity rating (0-100): 100
[6]; 63 g al/ha
  ECHCG phytotoxicity rating (0-100): 30
[6]; 500 g al/ha
  ECHCG phytotoxicity rating (0-100): 95
[7]; 63 g al/ha
  IPOHE phytotoxicity rating (0-100): 100
[7]; 500 g al/ha
  IPOHE phytotoxicity rating (0-100): 100
[8]; 63 g al/ha
  SETVI phytotoxicity rating (0-100): 100
[8]; 500 g al/ha
  SETVI phytotoxicity rating (0-100): 100
[9]; 63 g al/ha
  CASOB phytotoxicity rating (0-100): 30
[9]; 500 g al/ha
  CASOB phytotoxicity rating (0-100): 70
[10]; 63 g al/ha
  SORHA phytotoxicity rating (0-100): 80
[10]; 500 g al/ha
  SORHA phytotoxicity rating (0-100): 95
[11]; 63 g al/ha
  CHEAL phytotoxicity rating (0-100): 90
[11]; 500 g al/ha
  CHEAL phytotoxicity rating (0-100): 100
[12]; 63 g al/ha
  DIGSA phytotoxicity rating (0-100): 0
[12]; 500 g al/ha
  DIGSA phytotoxicity rating (0-100): 80
[13]; 125 g ai/ha
  crop damage rating RICE: 30
[13]; 500 g ai/ha
  crop damage rating RICE: 55
[14]; 125 g ai/ha
  crop damage rating CORN: 25
[14]; 500 g ai/ha
  crop damage rating CORN: 35
[15]; 63 g al/ha
  SOY crop damage rating (0-100): 90
[15]; 500 g al/ha
  SOY crop damage rating (0-100): 90
[16]; 63 g al/ha
  AMBEL phytotoxicity rating (0-100): 30
[16]; 500 g al/ha
  AMBEL phytotoxicity rating (0-100): 60
[17]; 125 g ai/ha
  phytotoxicity rating AMARE: 100
[17]; 500 g ai/ha
  phytotoxicity rating AMARE: 100
[18]; 125 g ai/ha
  phytotoxicity rating AMBEL: 35
[18]; 500 g ai/ha
  phytotoxicity rating AMBEL: 90
[19]; 125 g ai/ha
  phytotoxicity rating ABUTH: 100
[19]; 500 g ai/ha
  phytotoxicity rating ABUTH: 100
[20]; 125 g ai/ha
  phytotoxicity rating ECHCG: 80
[20]; 500 g ai/ha
  phytotoxicity rating ECHCG: 100
[21]; 125 g ai/ha
  phytotoxicity rating IPOHE: 20
[21]; 500 g ai/ha
  phytotoxicity rating IPOHE: 100
[22]; 125 g ai/ha
  phytotoxicity rating SETVI: 95
[22]; 500 g ai/ha
  phytotoxicity rating SETVI: 100
[23]; 125 g ai/ha
  phytotoxicity rating CASOB: 30
[23]; 500 g ai/ha
  phytotoxicity rating CASOB: 100
[24]; 125 g ai/ha
  phytotoxicity rating SORHA: 100
[24]; 500 g ai/ha
  phytotoxicity rating SORHA: 100
[25]; 125 g ai/ha
  phytotoxicity rating CHEAL: 100
[25]; 500 g ai/ha
  phytotoxicity rating CHEAL: 100
[26]; 125 g ai/ha
  phytotoxicity rating DIGSA: 100
[26]; 500 g ai/ha
  phytotoxicity rating DIGSA: 100
